Experiments:
[1] = test system: renin-angiotensin system (RAS); experiment: RSSE-Fingerprinting: blood incubated at 37° C. with added agents, LC-MS/MS quantification of angiotensin peptides; type: biochemical, human; conditions: for Ang 1-8 steady state equilibrium level compared to control / Ang 1-10 steady state equilibrium level compared to control: heparinised blood, agent added prior to incubation at 37° C., 2 h or 4 h
Experimental: Blood samples were collected and anti-coagulated with standardised heparin tubes (BD). As indicated in FIGS. 3A-3C, plasma separation has been done for the respective samples before the incubation to reach steady state equilibrium.
Following plasma separation by centrifugation at 3000 rcf for 10 minutes at 4° C., […] of plasma was applied onto an activated and equilibrated SEP-PAK™ C18 cartridge. Sample matrix components were removed by washing three times with 1 ml water. Bound analytes were then eluted with 1 ml of methanol. Eluates were evaporated to dryness and reconstituted in 10% acetonitril/90% water supplemented with 0.1% formic acid followed by subjection to LC-MS/MS analysis.
A vacuum manifold has been used for sample processing. • 1. Activation: EtOH abs. • 2. Equilibration: 2×1 ml H2O • 3. Loading: 0.2-1 ml stabilised plasma • 4. Washing: 3×1 ml H2O • 5. Elution: 1 ml MeOH Quantification and Signal Integration
MRM chromatograms were integrated using Analyst 1.5.1 software provided by Applied Biosystems. The threshold for the quantification limit was set at a signal-to-noise ratio of 10. Integration signals not reaching this ratio were set to zero. Analyte signals were related to internal standard signals and concentration was calculated from initially spiked amounts of internal standards.

[2] = molecular target: ACE2 (Homo sapiens, UniProt Q9BYF1); conditions: artificial matrix, vast excess of substrates; cited from earlier work
ACE2, sequence (Q9BYF1 18-805): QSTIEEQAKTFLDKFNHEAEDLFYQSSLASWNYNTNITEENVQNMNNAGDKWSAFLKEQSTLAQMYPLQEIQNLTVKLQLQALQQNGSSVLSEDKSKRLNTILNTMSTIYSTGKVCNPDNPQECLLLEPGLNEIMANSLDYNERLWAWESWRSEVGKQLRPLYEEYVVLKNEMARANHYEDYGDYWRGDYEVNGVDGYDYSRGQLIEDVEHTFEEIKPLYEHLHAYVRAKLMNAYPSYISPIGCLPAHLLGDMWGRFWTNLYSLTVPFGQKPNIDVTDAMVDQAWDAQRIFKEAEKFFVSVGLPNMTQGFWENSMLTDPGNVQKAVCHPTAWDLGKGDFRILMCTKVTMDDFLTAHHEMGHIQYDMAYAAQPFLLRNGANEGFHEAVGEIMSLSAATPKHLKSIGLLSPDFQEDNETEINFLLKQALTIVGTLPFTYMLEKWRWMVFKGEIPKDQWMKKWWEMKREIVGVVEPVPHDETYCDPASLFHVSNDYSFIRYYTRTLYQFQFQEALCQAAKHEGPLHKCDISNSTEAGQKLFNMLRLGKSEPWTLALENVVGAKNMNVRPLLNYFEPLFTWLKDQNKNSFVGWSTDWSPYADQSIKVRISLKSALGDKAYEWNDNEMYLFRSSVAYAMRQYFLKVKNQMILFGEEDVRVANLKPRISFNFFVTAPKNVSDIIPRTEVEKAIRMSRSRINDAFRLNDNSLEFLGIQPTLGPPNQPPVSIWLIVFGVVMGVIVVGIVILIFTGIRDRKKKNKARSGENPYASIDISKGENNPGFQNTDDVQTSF

Compound | Ang 1-8 steady state equilibrium level compared to control [1] | Ang 1-10 steady state equilibrium level compared to control [1] | other results
CC(C)C[C@@H](N)[C@H](O)C(=O)N[C@H](C(=O)N[C@H](C(=O)N[C@@H](CC(=O)O)C(=O)O)C(C)C)C(C)C [Amastatin] | massively increase |  | steady state equilibrium Ang 1-10 level in the presence of ACE2 (ACE2 mediated Ang 1-9 production) ([1]; FIG. 2C1/2C3, 2 h incubation): further increases
C[C@H](CS)C(=O)N1CCC[C@H]1C(=O)O [Captopril] | decreased | increased | 
NCCCC[C@H](N[C@@H](CCc1ccccc1)C(=O)O)C(=O)N1CCC[C@H]1C(=O)O [Lisinopril] | decreased | increased | 
ACE2: recombinant soluble human ACE2 produced by Apeiron Biologics |  |  | shift of RSSE-Fingerprint ([1]; 5 μg/ml enzyme added prior to incubation): shifted as expected
angiotensin II (DRVYIHPF; Angiotensin-2; UniProt P01019 25-32, looked up) [Ang 1-8, angiotensin peptide, ACE2 substrate] |  |  | maximal ACE2 conversion rate for Ang 1-8 to Ang 1-7 relative to conversion rate for Ang 1-10 to Ang 1-9 [2]: 65 times

Reference: patent US11079398B2, “Method for measurement of peptidic degradation products of a proteolytic cascade in blood samples” (ATTOQUANT DIAGNOSTICS GMBH, priority 2012, dated 2021)
